Assay results reported in patent publication EP0565593B1, “REDUCING PESTICIDAL INTERACTIONS IN CROPS” (priority 1990, dated 1992).

Columns and labels:
Velvetleaf (VELE) [1] = assay: whole plant or invertebrate; type: in vivo, Abutilon theophrasti; settings: PPI
Giant foxtail (GIFT) = assay: Greenhouse test Procedure VI (Examples 59-61; Tables 58-60); type: in vivo; settings: Antidote + Biocide No. 1 in furrow
Description: This procedure describes interaction among herbicide, biocide and antidote when the herbicide is incorporated in a soil cover layer and the biocide and the antidote are applied in a soil furrow containing crop seed before emergence of the crop. The soil and seeding depth were described in Procedure IV. A first container was designated as an untreated control, a second container was designated as a herbicide control, a third container was designated as a herbicide + biocide control and a fourth container as a herbicide + biocide + antidote test container. The biocide and antidote were formulated as granules. The biocide was applied to the soil furrows of the third and fourth containers at an application rate of 1.1 mg of active compound per cm of row. The antidote was applied to the soil furrow of the fourth container at an application rate of 0.37 mg of active compound per cm of row. A measured amount of the herbicide dispersed or dissolved in acetone was applied to a measured quantity of soil. The quantity of soil treated with the herbicide was thoroughly mixed to incorporate the herbicide. Samples of this soil were used to cover the seed beds of the second, third and fourth containers. For each test series, the seed bed of the first container was likewise covered by a soil layer not treated with herbicide and without biocide or antidote in the soil furrow.
The containers were then placed on a bench in a greenhouse. Watering was by subirrigation plus overhead irrigation after the plants emerged. All treatments were run in duplicate. Plant response was observed according to Procedure IV. Variations in this procedure will be noted in the examples.
The procedure used in this example involved the PPI application of biocide and safener as described in general Procedure VI above. The "primary" herbicide in this test was MON-12000 (Herbi-cide No. 1) in admixture with other herbicides designated as "co-herbicides", which included LASSO® (co-herbicide B); DUAL® (C); acetochlor (A); EPTAM® (D); butylate (E) and PURSUIT® (K).
The in-furrow treatments with blended COUNTER 15G and antidote mixtures was as described in above examples. MON-12000 and the co-herbicides were formulated in acetone and applied as tank mixtures, incorporated into Dupo silt loam soil with a rotary drum mixer. Subsamples were used to cover seeded and in-furrow treated 10.2 cm pots. Pots were placed on greenhouse benches and subirrigated. Plant responses were observed thirteen days after PPI initiation. Test results (average of two replications) are shown in Table 58, wherein giant foxtail (GIFT) was used in place of shattercane.
This test was conducted in the same manner used in Example 59. All biocide and antidote components were the same and in these tests XRD-498 (Herbicide No. 21) was the prime herbicide. Co-herbicides are shown in Table 59 together with test data.
In one other test conducted as described in the preceding examples in this series of tests, the herbicide PURSUIT® was used as the primary herbicide (in the context of this invention) together with the same insecticide and safeners as above and the co-herbicides shown in Table 60, together with test results.

Velvetleaf (VELE) [2] = assay: Multi-crop greenhouse test, soil-applied (Examples 65, 66; Tables 64, 65); type: in vivo, Abutilon theophrasti
Procedure: Tests according to this invention in various crops indicate widespread application of the invention. In Examples 62-66 below are described tests with a variety of herbicides contacted with COUNTER® 15G in the presence and absence of MON-7400 (Antidote No. 12); MON-13900 (No. 1); MON-4660 (No. 16) and flurazole (No. 16). Those tests were conducted according to Procedures IV or V described above and illustrated further in other foregoing examples. Plants used in all tests were, for crops (as abbreviated in parentheses); cotton (COTT); soybean (SOBE); CORN, grain sorghum (GRSO); wheat (WHEA) and RICE, and the weeds giant foxtail (GIFT) and velvetleaf (VELE). The data in the tables below represent averages of two replications.
In this test the crops and weeds were planted 1.3 cm deep in 13.7 cm X 27.7 cm pans containing Dupo silt loam soil. The test safeners were applied in acetone solution and COUNTER 15G as dry granules to soil cover layers and incorporated by shaking in a bag. Treated cover layers were placed on seeded pans which were transferred to greenhouse benches and subirrigated. Herbicide was applied POE six (6) days after PPI initiation and observations of plant injury made ten (10) days later; results are shown in Table 61. The herbicide used in this example was BEACON (No. 8).
In another test in the several crops and weeds used in this test series, the herbicidal component was MON-12000 (No. 1); the other components were the same. the procedure used in this test was the same as that described in Example 62, modified to use a light overhead irrigation (about 0.32 cm/day) during days 4-7 of the test. Table 64 […]

For `CC1(C)OC(c2ccco2)CN1C(=O)C(Cl)Cl` (centres unmarked) [compound 1], the “% Inhibition VELE” value (Velvetleaf (VELE) [1]; […], 13 days after PPI (Table 31)) was 85%, the “% Inhibition VELE” value (Velvetleaf (VELE) [1]; antidote 4.48 Kg/Ha + Herb. […], 13 days after planting) was 90% and the “% Inhibition GIFT” value (Giant foxtail (GIFT); Herbicide No. 6 0.14 Kg/Ha PPI) was 65%. The “% Inhibition GIFT” value (Giant foxtail (GIFT); Herbicide No. 11 0.0044 Kg/Ha PPI) was 0%, the “% Inhibition GIFT” value (Giant foxtail (GIFT); Herbicide No. 12 0.0044 Kg/Ha PPI) was 0% and the “% Inhibition GIFT” value (Giant foxtail (GIFT); Herbicide No. 13 0.0011 Kg/Ha PPI) was 25%. For the same compound, the “% Inhibition GIFT” value (Giant foxtail (GIFT); Herbicide No. 13 0.0022 Kg/Ha PPI) was 35%, the “% Inhibition GIFT” value (Giant foxtail (GIFT); Herbicide No. 14 0.07 Kg/Ha PPI) was 0% and the “% Inhibition GIFT” value (Giant foxtail (GIFT); Herbicide No. 16 0.07 Kg/Ha PPI, 13 days) was 30%. The “% Inhibition GIFT” value (Giant foxtail (GIFT); Herbicide No. 17 0.14 Kg/Ha PPI, 13 days) was 75%, the “% Inhibition GIFT” value (Giant foxtail (GIFT); Herbicide No. 18 0.04 Kg/Ha PPI, 13 days) was 55% and the “% Inhibition GIFT” value (Giant foxtail (GIFT); Herbicide No. 20 1.12 Kg/Ha PPI, 13 days) was 20%. For the same compound, the “% Inhibition GIFT” value (Giant foxtail (GIFT); Herbicide No. 22 0.28 Kg/Ha PPI, 13 days) was 25%, the “% Inhibition GIFT” value (Giant foxtail (GIFT); Herbicide No. 24 0.14 Kg/Ha PPI, 13 days) was 10% and the “% Inhibition GIFT” value (Giant foxtail (GIFT); Herbicide No. 25 0.14 Kg/Ha PPI, 13 days) was 30%. The “% Inhibition GIFT” value (Giant foxtail (GIFT); Herbicide No. 26 2.24 Kg/Ha PPI, 13 days) was 0%, the “% Inhibition GIFT” value (Giant foxtail (GIFT); Herbicide No. 28 0.04 Kg/Ha PPI, 13 days) was 50% and the “% Inhibition VELE” value (Velvetleaf (VELE) [2]; Table 64, Herb. No. 1 0.018 Kg/Ha + Biocide No. 1 8.96 Kg/Ha + Antidote 4.48 Kg/Ha) was 65%. For the same compound, the “% Inhibition VELE” value (Velvetleaf (VELE) [2]; Table 64, Herb. No. 1 0.07 Kg/Ha + Biocide No. 1 8.96 Kg/Ha + Antidote 4.48 Kg/Ha) was 85%, the “% Inhibition VELE” value (Velvetleaf (VELE) [2]; Table 64, Herb. No. 1 0.28 Kg/Ha + Biocide No. 1 8.96 Kg/Ha + Antidote 4.48 Kg/Ha) was 95% and the “% Inhibition VELE” value (Velvetleaf (VELE) [2]; Table 65, Herb. No. 1 0.018 Kg/Ha + Biocide No. 1 8.96 Kg/Ha + Antidote 4.48 Kg/Ha) was 10%. For the same compound, the “% Inhibition VELE” value (Velvetleaf (VELE) [2]; Table 65, Herb. No. 1 0.07 Kg/Ha + Biocide No. 1 8.96 Kg/Ha + Antidote 4.48 Kg/Ha) was 75% and the “% Inhibition VELE” value (Velvetleaf (VELE) [2]; Table 65, Herb. No. 1 0.28 Kg/Ha + Biocide No. 1 8.96 Kg/Ha + Antidote 4.48 Kg/Ha) was 90%.
